The results in this text go back to US20190337889A1, “COMPOSITIONS AND METHODS OF REGULATING CANCER RELATED DISORDERS AND DISEASES” (ONCO THERAPIES LLC, priority 2016, published 2019).

One test concerns MCF7/LCC9 cell line. Nature of the test: XTT cell death assay, MCF7/LCC9 cells. The format is cell-based. The conditions noted are these: Homo sapiens, # = 200 uM not tested, read-out: LCC-9: concentration with effect on cancer cells. On the procedure:
(§1) Maintenance and Treatment of Cell Lines. Human HepG2 hepatocarcinoma cells and human U87MG glioma cells (ATCC, Manassas, Va.) were maintained in EMEM medium supplemented with 10% FBS (Hyclone, Logan, Utah). The human 1321N1 astrocytoma cells (European Collection of Cell Cultures, Sigma-Aldrich) were cultured in Dulbecco's modified Eagle's medium supplemented with 10% FBS and 2 mM L-glutamine. Human prostate carcinoma cell line PC3 was cultured in F-12K medium (Life Technologies) supplemented 10% FBS. Human lung carcinoma cell line A549 was cultured in DMEM+2 mM glutamine+10% FBS. ER positive, estrogen independent for growth MCF7/LCC9 cell line was cultured in IMEM (Biofluids) supplemented with 5% charcoal stripped calf serum. Medulloblastoma cell line DAOY was cultured in Eagle's MEM supplemented with 10% FBS. All cell lines except MDA-MB-321 were cultured at 37° C. in 5% CO2, and the medium was replaced every 2-3 days. MDA-MB-231 was grown in Leibovitz's L-15 medium with 10% FBS without CO2 supplementation.
(§2) Cell death assay. The extent of cell death and toxicity of the compounds was tested by XTT assay. The cells were plated in their respective media in 96-well plates. The compounds and were added in dilutions ranging from 0.01 nM to 200 μM and for control DMSO to 1% was used. […] For XTT assay first the medium in the wells was replaced with 200 μs of fresh phenol-red free medium. Then 50 μls of XTT solution with PMS was added to the wells. The XTT solution was made adding 0.02% phenazine methosulfate (Sigma-Aldrich #P9625) to 1 mg/ml XTT sodium salt made up in phenol-red free RPMI (Sigma-Aldrich #X4636). The plate was incubated for 4 hours at 37° C. and then the absorbance was read at a wavelength of 490 nm.

The test system of a further test is DAOY. The test can be described thus: XTT cell death assay, DAOY medulloblastoma cells. The conditions noted are these: Homo sapiens, # = 200 uM not tested, read-out: DAOY: concentration with effect on cancer cells. Format: cell-based. On the procedure: as §1, §2
Test [1] relates to HepG2 cells. Nature of the test: XTT cell death assay, HepG2 hepatocarcinoma cells. Format: cell-based, human. The conditions noted are these: Homo sapiens, HepG2, *Greater than 50% inhibition, dilutions 0.01 nM to 200 μM, usually 24 or 48 hours, read-out: HepG2* (liver cancer): concentration with greater than 50% inhibition. The protocol: as §1, with “FBS.” for “FBS. All cell lines except MDA-MB-321 were cultured at 37° C. in 5% CO2, and the medium was replaced every 2-3 days. MDA-MB-231 was grown in Leibovitz's L-15 medium with 10% FBS without CO2 supplementation.”
as §2, with “#X4636).” for “#X4636). The plate was incubated for 4 hours at 37° C. and then the absorbance was read at a wavelength of 490 nm.”

Another test deals with PC3 cells. The test can be described thus: XTT cell death assay, PC3 prostate carcinoma cells. Format: cell-based. Particulars: Homo sapiens, PC-3, # = 200 uM not tested, read-out: PC3: concentration with effect on cancer cells. The protocol:
as §1, §2

The next test deals with MDA-MB-231. Nature of the test: XTT cell death assay, MDA-MB-231 cells. Format: cell-based. The conditions noted are these: Homo sapiens, # = 200 uM not tested, read-out: MDA-MB-231: concentration with effect on cancer cells. On the procedure:
as §1, §2

For a further test, the system named is A549 xenograft. The test can be described thus: Zebrafish xenograft assay with implanted A549 cells. Particulars: zebrafish embryos, 100 uM, 4 days after implantation, n=10 to 15. Format: in vivo. On the procedure:
Zebrafish xenograft assay. Zebrafish embryos with implanted A549 cells were imaged within 6 hours of cell injection (day 0) and treated with compounds. At 4 days post injection (day 4) the embryos were imaged again. The area of fluorescence due to the labeled cells was measured using Image J at day 0 (area 0) and day 4 (area 4). The change in area was calculated by subtracting area 0 from area 4 (=d area). D area was then normalized for the size of the initial tumor by dividing d area by area 0 (=d area/area 0).

The next test deals with A549. The test can be described thus: XTT cell death assay, A549 lung carcinoma cells. Format: cell-based. The conditions noted are these: Homo sapiens, # = 200 uM not tested, read-out: A549: concentration with effect on cancer cells. The protocol: as §1, §2
In another test the test system is tumor cells. The test can be described thus: Effect on the growth of a variety of tumor cells (summary of Table 1). Particulars: IC50 value of less than 100 μM was considered active. Format: cell-based. The protocol: as §1
Cell death assay. The extent of cell death and toxicity of the compounds was tested by XTT assay. The cells were plated in their respective media in 96-well plates. […] The plate was incubated for 4 hours at 37° C. and then the absorbance was read at a wavelength of 490 nm.
The effect of NT015 and NT016 on the growth of a variety of tumor cells was evaluated. […]

Test [2] deals with HepG2 cells. Nature of the test: Caspase assay (Caspase-Glo 3/7) on HepG2 cells. Particulars: 48 hours after addition, 100 uM, n=4. The format is cell-based, human. The protocol: Caspase Assay. Caspase assay was conducted by using the Promega Caspase-Glo 3/7 kit. 100 ul of caspase-Glo 3/7 reagent was added to each well of a white walled 96-well plate containing 100 ul of blank, negative control cells or treated cells in culture medium. The contents of the wells were mixed gently and incubated at room temperature for 30 minutes to 3 hours. The luminescence of each sample was read in a luminometer.

SMILES strings stand for the structures.

`CC(Cc1ccc2ccccc2c1)NCC(O)c1ccc(O)cc1` (centres unmarked) [NT026, 4-(1-hydroxy-2-((1-(naphthalen-2-yl)propan-2-yl)amino)ethyl)phenol]: the minimal effective concentration in the test on MCF7/LCC9 cell line, with DAOY, with HepG2 cells [1], in the test with PC3 cells, with MDA-MB-231 and with A549 was 100 µM each time. Besides, the “area of A549 xenograft implant” value in the test on A549 xenograft was “efficacy of reducing the area of xenograft significantly”.

Consider `CC(Cc1cccc2ccccc12)NCCc1ccc(O)cc1` (centres unmarked) [NT016, 4-(2-((1-(naphthalen-1-yl)propan-2-yl)amino)ethyl)phenol], for which the minimal effective concentration in the test with MCF7/LCC9 cell line was 100 µM; in the test on DAOY, 100 µM; in the test on HepG2 cells [1], 100 µM; in the test on PC3 cells it was 200 µM; in the test with A549, 100 µM. Moreover, the “area of A549 xenograft implant” value with A549 xenograft was “efficacy of reducing the area of xenograft significantly”. Besides, the “inhibition of liver, lung, breast, prostate and CNS cancer cell growth” value in the test with tumor cells is reported as “potent inhibitors”.

In the case of `CC(N)Cc1ccc2ccccc2c1` (centres unmarked) [NT015, 1-(naphthalen-2-yl)propan-2-amine], the “caspase activity (fluorescence ratio to untreated cells)” value with HepG2 cells [2] was “increase in caspase activity”. Besides, the “inhibition of liver, lung, breast, prostate and CNS cancer cell growth” value with tumor cells is “potent inhibitors”.

Turning to `CC(Cc1cccc2ccccc12)NCC(O)c1ccc(O)cc1` (centres unmarked) [NT027, 4-(1-hydroxy-2-((1-(naphthalen-1-yl)propan-2-yl)amino)ethyl)phenol], the minimal effective concentration with MCF7/LCC9 cell line and in the test with MDA-MB-231 was 100 µM throughout. Also, the “caspase activity (fluorescence ratio to untreated cells)” value in the test with HepG2 cells [2] is recorded as “increase in caspase activity”. Further, the “area of A549 xenograft implant” value in the test on A549 xenograft is given as “efficacy of reducing the area of xenograft significantly”.

Turning to `CC(Cc1cccc2ccccc12)NCC(O)c1ccccc1O` (centres unmarked) [NT029, 2-(1-hydroxy-2-((1-(naphthalen-1-yl)propan-2-yl)amino)ethyl)phenol], the minimal effective concentration amounted to 100 µM with MCF7/LCC9 cell line; 100 µM with DAOY; 100 µM in the test on HepG2 cells [1]; 200 µM in the test on PC3 cells; 100 µM in the test on A549. In addition, the “area of A549 xenograft implant” value in the test on A549 xenograft is on record as “efficacy of reducing the area of xenograft significantly”.
